Data reported in patent publication US6743917B2, “Camptothecin analogs and methods of preparation thereof” (University of Pittsburgh, priority 1993, dated 2004).
In brackets after ≈: the same amount, converted by molar mass. Like-named read-outs stand apart in the source and are kept apart here.

Assays:
[1] = Kinetics of lactone ring opening in whole human blood (HPLC);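 note: hydrolytic opening of the camptothecin lactone ring followed over time by quantitative C18 reversed-phase HPLC in human whole blood at physiological temperature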
[2] = cited from earlier work
[3] = earlier studies; cited from earlier work
[4] = Kinetics of lactone ring opening in PBS buffer (HPLC); assay type: physicochemical; conditions: for % Lactone at Equilibrium: PBS; for half-life: buffer, pH 7.4
Protocol: Kinetics of Lactone Ring Opening. […] Mi and Burke (1994), supra.
FIG. 21 summarizes the stability of DB172 in phosphate buffered saline (PBS) buffer, pH 7.4, at physiological temperature. Shown in the figure are plots of lactone fraction as a function of time for DB172 at different concentrations. Drug was added to solution from a concentrated DMSO stock solution such that the volumes of DMSO were very small (less than 0.5%) relative to the volume of water. […] At the more dilute drug concentrations the drug hydrolyzes as previously observed for other camptothecins containing the ^α-hydroxy-^δ-lactone moiety.

[5] = Kinetics of lactone ring opening in PBS containing HSA (HPLC); conditions: HSA (PBS containing 30 mg/ml HSA)
[6] = tested on: HL-60 (human promyelocytic leukemic) cells; test: Cytotoxicity assay, HL-60 cells (XTT-microculture tetrazolium assay); assay type: cell-based; conditions: Homo sapiens; HL-60 cells, 72 hr incubation, XTT; read-out: Inhibition of cancer cell growth IC50, HL-60
Protocol: The camptothecin derivatives were evaluated for their cytotoxic effects on the growth of HL-60 (human promyelocytic leukemic), 833K (human teratocarcinoma) and DC-3F (hamster lung) cells in vitro. The cells were cultured in an initial density of […]. They were maintained in a 5% CO2 humidified atmosphere at 37° C. in RPMI-1640 media (GIBCO-BRL Grand Island, N.Y.) containing penicillin 100 μ/ml)/streptomycin (100 ^μg/ml) (GIBCO-BRL) and 10% heat inactivated fetal bovine serum. The assay was performed in duplicate in 96-well microplates. The cytotoxicity of the compounds toward HL-60 cells following 72 hr incubation was determined by XTT-microculture tetrazolium assay. Scudiero, D. A., et al., Cancer Res., 48, 4827 (1988), the disclosure of which is incorporated herein by reference. 2′, 3′-bis(-methoxy-4-nitro-5-sulfheny)-5-[(phenylamino)carbonyl]-2H-tetrazolium hydroxide (XTT) was prepared at 1 mg/ml in prewarmed (37° C.) medium without serum. Phenazine methosulfate (PMS) and fresh XTT were mixed together to obtain 0.075 mM PMS-XTT solution (25 ^μl of the stock 5 mM PMS was added per 5 ml of 1 mg/ml XTT). Fifty ^μl of this mixture was added to each well of the cell culture at the end of 72 hr incubation. After incubation at 37° C. for 4 hr., absorbance at 450 nm and 630 nm was measured with a microplate reader (EL340, Bio-Tek Instruments, Inc., Winooski, Vt.).

[7] = tested on: DC-3F (hamster lung) cells; test: Cytotoxicity assay, DC-3F cells (sulforhodamine B protein content); assay type: cell-based; conditions: Mesocricetus auratus, DC3F; DC-3F cells, sulforhodamine B; read-out: Inhibition of cancer cell growth IC50, DC-3F
Protocol: (§1) Cultures were fixed with trichloroacetic acid and then stained for 30 minutes with 0.4% sulforhodamine B dissolved in 1% acetic acid. Unbound dye was removed by acetic acid washes, and the protein-bound dye was extracted with an unbuffered Tris base [tris(hydroxy-methyl)aminomethan] for determination of absorbance at 570 nm in a 96-well microplate reader. The experiments were carried out in duplicate using five to six concentrations of the drugs tested. Data were analyzed via computer software.

[8] = Equilibrium binding to DMPC small unilamellar vesicles (fluorescence anisotropy titration); conditions: for KDMPC overall association constant: PBS buffer at PH 7.4 and 37° C.
[9] = whole human blood, earlier studies; cited from earlier work
[10] = target: human serum albumin (HSA) (Homo sapiens, UniProt P02768); conditions: PBS at pH 7.4; cited from earlier work
Chain of human serum albumin (HSA) (P02768 25-609): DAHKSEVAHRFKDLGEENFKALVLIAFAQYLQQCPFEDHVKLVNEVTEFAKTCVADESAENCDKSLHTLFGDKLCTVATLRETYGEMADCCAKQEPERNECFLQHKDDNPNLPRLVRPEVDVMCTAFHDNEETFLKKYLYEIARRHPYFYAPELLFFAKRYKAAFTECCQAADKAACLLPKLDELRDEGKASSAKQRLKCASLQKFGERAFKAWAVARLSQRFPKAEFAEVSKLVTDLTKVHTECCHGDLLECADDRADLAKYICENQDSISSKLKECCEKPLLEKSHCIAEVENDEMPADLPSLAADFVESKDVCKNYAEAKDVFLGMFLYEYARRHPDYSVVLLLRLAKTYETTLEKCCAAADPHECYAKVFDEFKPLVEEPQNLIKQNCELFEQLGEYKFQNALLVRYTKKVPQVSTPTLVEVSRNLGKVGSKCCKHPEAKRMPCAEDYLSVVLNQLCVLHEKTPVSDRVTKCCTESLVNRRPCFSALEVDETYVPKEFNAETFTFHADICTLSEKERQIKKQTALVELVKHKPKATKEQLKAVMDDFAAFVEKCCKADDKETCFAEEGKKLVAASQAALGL

[11] = Equilibrium binding to DMPG small unilamellar vesicles (fluorescence anisotropy titration); conditions: for KDMPG overall association constant: PBS buffer at PH 7.4 and 37° C.
in vitro = conditions: human
[12] = tested on: MDA-MB-435 tumorigenic metastatic human breast cancer cells; test: cells; assay type: cell-based; conditions: Homo sapiens
Protocol: Cells. […] The cells were exposed to a range of drug concentrations for 72 hr exposure periods and then viability was assessed using a sulphorrhodamine B (SRB) assay. SRB assays were performed using a standard assay.
Sulphorhodamine B (SRB) assay was used. This assay measures the total protein levels in the living cells. Proteins from dead cells are lysed and removed in the washing step before TCA fixation. However, it is possible that cells in the early stage of death still have their membrane integrity and therefore retain the protein contents inside. As a result, the optical density at 490 nm can sometimes be overestimated and the cytotoxicity underestimated. […] The SRB assay is now a well regarded assay and was recently approved by NCI as a standard assay for anticancer drug screening.

[13] = tested on: 833K (human teratocarcinoma) cells; test: Cytotoxicity assay, 833K cells (sulforhodamine B protein content); assay type: cell-based; conditions: Homo sapiens; 833K cells, sulforhodamine B; read-out: Inhibition of cancer cell growth IC50, 833K
Protocol: as §1

Lewis lung carcinoma = test: Antitumor activity in vivo, Lewis lung carcinoma; conditions: B6D2F1 mice, intraperitoneously twice daily for five days
Protocol: (§2) Antitumor activities of camptothecin derivatives were tested in B6D2F1 mice bearing sarcoma-180 or Lewis lung murine solid tumor. For S-180, 3×10^6 cells were innoculated subcutaneously on […]. Antitumor treatment started on day 1 intraperitoneously twice daily for five days. Tumor volumes on day 7 and day 14 were measured. Average tumor volumes were described as the ratio of treated versus untreated control (T/C). The control (treated with DMSO vehicle only) tumor volumes for day 7 and day 14 were 0.11 cm^3 and 0.61 cm^3, respectively. The T/C camptothecin is designated with “+++.” An increment or decrement of 10% as compared to the camptothecin T/C on day 14 at 2 mg/kg dosage is designated with increase or decrease of one “+” unit, respectively.
For Lewis lung carcinoma, tumor cells (1×10^6) were inoculated subcutaneously on day 0 and treatment started on day 1, intraperitoneously twice daily for five days. The grading of effects was as described above.

[14] = Kinetics of lactone ring opening in RBC (HPLC); assay type: in vitro ADME, human; conditions: RBC
From the text: Kinetics of Lactone Ring Opening. […] Mi and Burke (1994), supra. […] Louis, Mo.) was used.

[15] = Self-association in aqueous solution (fluorescence intensity with time); assay type: physicochemical; conditions: lactone drug forms added to solution, time=0
Protocol: FIG. 22 summarizes the dependence of the fluorescence intensity of DB172 as a function of time and pH. In these experiments DB172 is added to solution as the lactone form. At low pH where the drug remains in the lactone form, the change in intensity with time is the lowest. At pH 10, where the conditions are such that the lactone more readily hydrolyzes and forms carboxylate, a significant change in fluorescence intensity is observed. It appears that a pH 10 nonfluorescent micellular aggregates composed of lactone disassemble and form open-ring carboxylate forms that tend to exist in solution as monomeric fluorescent species.
FIG. 23 explores the fluorescence intensity of DB172 as a function of concentration. Following the addition of low concentration of lactone drug to solution, the change in fluorescence signal is the greatest whereas at high drug concentration (10 ^μM) the fluorescence intensity changes are minimal. It is believed that a low concentration the micellular aggregates of DB172 displaying reduced fluorescence can disassemble and form fluorescent carboxylate species, but at higher drug concentration the equilibrium favors that the agent remains in the aggregated or reduced fluorescence state. […] Once again this decrease in fluorescence that occurs at reduced pH appear to be due to the formation of lactone aggregates of reduced fluorescence quantum yield.
FIGS. 21 through 24 are consistent with the unusual ability of DB172 lactone to self-associate and form micelles at micromolar drug concentrations. The micellular DB172 aggregates display a reduced fluorescence. If conditions allow for hydrolysis to occur such that carboxylate forms, there is an increase in the fluorescence intensity of the sample. FIG. 25 compares the relative change in the fluorescence emission of a sample following addition of lactone drug forms to solution. In these experiments the values for each drug are normalized to a value of 1 at time equals to zero, and the ability of the various analogs to disassociate in the event the drugs are aggregated at time=0 is monitored with time. […]

[16] = Blood levels of DB-67 after intrastomach dosing; assay type: in vivo; conditions: 5 mg/kg intrastomach injection in DMSO; samples at 30 min, 1 hr, 2 hr, 4 hr
Protocol: To evaluate the blood levels achieved following dosing at 5 mg/kg, four animals were given 0.1 ml intrastomach injections of DB-67 dissolved in DMSO. The stock contained DB67 at a concentration of 1.6 mg/ml. At time points of 30 min, 1 hr, 2 hr, and 4 hr, 1 ml samples of blood were drawn and collected by heart puncturing. The samples were centrifuged for 3 min and stored frozen until analysis was carried out.

[17] = tested on: glioma cells (U87, A172, SG388, T98G, LN-Z308); test: Inhibition of cell proliferation in glioma cell lines; assay type: cell-based; conditions: several lines of glioma cells (U87, A172, SG388, T98G, LN-Z308), read-out: median effective concentrations, inhibiting cell proliferation
[18] = human
sarcoma-180 = test: Antitumor activity in vivo, sarcoma-180; conditions: B6D2F1 mice, intraperitoneously twice daily for five days, several equivalent doses
Protocol: as §2

[19] = Whole Blood, physiological temperature
[20] = human plasma, pH 7.4 and 37° C.
[21] = MDA-MB-435 cells, 72 hrs exposure, absence of HSA, read-out: IC50 (w/o HSA)

SMILES	% Lactone at Equilibrium [1, 19] [%]	% Lactone at Equilibrium [4]	% Lactone at Equilibrium [5]	t1/2 [5] [min]	IC50 [6] [nM]	IC50 [7] [nM]	KDMPC overall association constant [8] [M⁻¹]	KDMPG overall association constant [11] [M⁻¹]	half-life (in vitro; whole blood) [min]	IC50 [13] [nM]	K value for DMPC, fold greater than camptothecin ([8]; relative to camptothecin) [fold]	IC50 [12, 21] [nM]	half-life [4] [min]	half-life (in vitro; blood) [min]	further results
CC[C@@]1(O)C(=O)OCc2c1cc1n(c2=O)Cc2cc3c(N)cccc3nc2-1 [9-aminocamptothecin]	< 0.3														fraction converted to carboxylate in plasma ([2]; plasma): > 99.5%; fraction hydrolyzed in PBS solution containing HSA [3]: > 97%
CC[C@@]1(O)C(=O)OCc2c1cc1n(c2=O)Cc2cc3ccccc3nc2-1 [CPT, (20S)-Camptothecin, reference compound]		17 +/− 2.0%	<0.5%	11.9 ± 0.3	5	6 to 9	100	100	21.6	10					% Lactone at Equilibrium ([1]; Whole Blood, physiological temperature, listed as Camptothecin): 5.3 +/− 0.6%; % Lactone at Equilibrium ([1]; Whole Blood, physiological temperature, listed as camptothecin): 5.3%; lactone level at equilibrium in whole blood, fold greater than 9-aminocamptothecin ([1]; relative to 9-aminocamptothecin): approximately 10 fold; % lactone at equilibrium in human plasma [2, 20]: 0.2%; t1/2 of lactone opening in human plasma [2, 20]: 11 min; t1/2 of lactone in whole blood [9]: 22 min; affinity of HSA for the carboxylate form, fold higher than for the lactone form [10]: 200 fold; IC50 ([12]; MDA-MB-435, 72 h, read-out: IC50 (w/o HSA)): 8 nM
CCC1(O)C(=O)OCc2c1cc1n(c2=O)Cc2c-1nc1cc(F)ccc1c2[Si](C)(C)C (stereo in doubt) [Example 7, (20S)-11-fluoro-7-trimethylsilylcamptothecin]					0.75	2				0.92					similar antitumor effect (tumor volume reduction) to camptothecin at x-fold lower doses (Lewis lung carcinoma): 4 fold
CC[C@@]1(O)C(=O)OCc2c1cc1n(c2=O)Cc2c-1nc1ccc(O)cc1c2[Si](C)(C)C(C)(C)C [DB-67, (20S)10-Hydroxy-7-tert-butyldimethylsilylcamptothecin]	30	10.2 +/− 0.3%	10.5 +/− 2.0%	119.0 ± 5.3			2700	2800	130		27	7			% Lactone at Equilibrium [14]: 41.4 +/− 0.7%; t1/2 [14]: 51.4 ± 0.5 min; self-association / aggregation state in solution [15]: much more likely to be found in solution as monomeric drug relative to DB172; t1/2 [1, 19]: 133.0 ± 15.9 min; % Lactone at Equilibrium ([1]; Whole Blood, physiological temperature, listed as DB 67): 30.5 +/− 1.9%; times more lipophilic than camptothecin ([8]; relative to camptothecin): 25 times; DB67 levels in blood after oral dosage [16]: > 40 ng/mL; K value for DMPG, fold greater than camptothecin ([11]; relative to camptothecin): 28 fold; IC50 ([12]; MDA-MB-435 cells, 72 hrs exposure, presence of 1 mg/ml HSA, read-out: IC50 (w/HSA)): 22 nM
CC[C@@]1(O)C(=O)OCc2c1cc1n(c2=O)Cc2c-1nc1ccc(O)cc1c2CC[Si](C)(C)C [DB-174, (20S)-10-Hydroxy-7-[(2-trimethylsilyl)ethyl]camptothecin]		13.7 +/− 0.7%					9000	6600			~90	12	29.7	40.3	EC50 [17]: 0.01 to 0.1 µg/mL (≈ 0.0215 to 0.215 µM)
CC[C@@]1(O)C(=O)OCc2c1cc1n(c2=O)Cc2c-1nc1ccccc1c2[Si](C)(C)C [Example 1, (20S)-7-trimethylsilylcamptothecin]		11.1 +/− 0.1%			3.8	4.2				5.6			34.6	54.6	% Lactone at Equilibrium [18]: 23.7 +/− 0.0%; activity against sarcoma 180 compared with camptothecin (tumor volume reduction) (sarcoma-180): better activity than camptothecin
